We go through five molecules from patent US20040019060A1, “Sigma receptor ligands and their medical uses” (priority 2000, published 2004).

Broadly, the IC50 is the concentration that inhibits the measured activity by half.

Where two headings read alike, the source gives them in different places.

One data set deals with sigma-1 sites (Homo sapiens, UniProt Q99720). Particulars: cited from earlier work; for affinity for sigma-1 versus sigma-2 sites / selectivity for sigma sites compared to other receptors: Matsumoto et al 1995; for selectivity for sigma sites compared to other receptors: vs opiate, phencyclidine, muscarinic, dopamine, alpha-1-, alpha-2-, beta-adrenoceptor, 5HT-1, 5-HT-2.
Another data set deals with endothelial cells. Put plainly: Endothelial cell proliferation assay (cell phosphatase activity). The data set is classed as cell-based, human. Particulars: for IC50: concentration of drug required to inhibit survival and/or proliferation by 50%, read-out: Antagonists: IC50; for Rescue from Rimcazole inhibition of proliferation: 4 μM agonist added together with 4 μM Rimcazole; for Stimulatory activity on cell proliferation: agonist ligands alone; for Agonists: stimulation: increase in cell number relative to controls on day 4. The procedure:
HUVECS (human umbilical vein endothelial cells) obtained from TCS Biologicals were grown in TCS Biologicals Large Vessel Endothelial Cell Basal Medium (ZHM-2951) with supplement (ZHS-8945). This contains heparin, hydrocortisone, human EGF, human bFGF (concentrations not disclosed by the Company) with added 2% FCS, pH 7.4.
HMEC-1 (immortalised human microvascular endothelial cells) obtained from Dr Colin Porter, Chester Beatty Laboratories were grown in TCS Biologicals Microvascular Endothelial Cell Basal Medium (ZHM-2946) with supplement (ZHS-8947). This contains heparin, hydrocortisone, human EGF, human bFGF, dibutyryl cyclic AMP (concentrations not disclosed by the Company) with added 5% FCS, pH 7.4.
HDMECS (human dermal microvascular endothelial cells) obtained from TCS Biologicals were grown in TCS Biologicals Microvascular Endothelial Cell Basal Medium (ZHM-2946) with supplement (ZHS-8947). This contains heparin, hydrocortisone, human EGF, human bFGF, dibutyryl cyclic AMP (concentrations not disclosed by the Company) with added 5% FCS, pH 7.4.
The cells were seeded at 2×10^4 ml in 96 well microtitre plates on day 0, and sigma ligands were added in fresh medium on day 1. […] PCS at the concentrations indicated was present throughout the assay. Each concentration of drug was assayed in triplicate, and the vehicle concentration was kept constant.
Viable cells present at the end of the assay were estimated by determining phosphatase activity as follows: 100Xl of paranitrophenylphosphate (Sigma) at 3 mg/ml in phosphate buffer pH 5.5 containing 0.1% Triton X100 was added to wells and incubated for 2hr at 37° C. The reaction was stopped with 1N NaOH. Released paranitrophenol, indicative of attached cell number, was measured by reading the absorbance at 405 nm in a Titertek multiscan. […] The 100% value is the mean absorbance of control wells treated with vehicle alone; the 0% value is that of wells containing medium only.

For data set [1], the system named is Human mammary carcinoma (MDA MB 468) cells. The experiment in a line: MTS cell viability/proliferation assay, mammary carcinoma cells. The data set is classed as cell-based. As to conditions: 10 micromolar, low passage cells, FIG. 9. The procedure:
Human mammary carcinoma (MDA MB 468) cells were obtained from TCC, Manassas, Va., USA; catalogue number HTB-132; cells were grown in accordance with the manufacturer's instructions.
(§1) Cell density was checked microscopically at time zero.

Data set [2] concerns Human mammary epithelial cells. The experiment in a line: MTS cell viability/proliferation assay, mammary epithelial cells. Type of data set: cell-based. As to conditions: 10 micromolar, up to 48 hours, FIG. 9.
Excerpt: (§2) (Tissue in all cases was from healthy donors). […] Primary cell types included:
Human mammary epithelial cells (catalogue number CC-2551; stain positive for cytokeratins 14, 18 and 19).
as §1

Data set [3] is described as follows: Pharmacokinetics in mice (LCMS of plasma, liver, spleen). Type of data set: in vivo, Balb/C mice. As to conditions: not shown. The procedure:
Prior to undertaking any in vivo experiments with Rimcazole to study effects on tumour growth and angiogenesis, it was necessary to determine its pharmacokinetics in order that doses in the active range could be administered. Rimcazole (dissolved in water) was administered at 40 mg/kg i.p to Balb/C mice. Heparinised blood samples were taken at 5, 15 and 30 minutes, 1,2,4,6, and 24 hours and plasma separated. Tissue samples were also taken at some time points for analysis. Rimcazole samples were initially analysed by LCMS.
Column: Supelco 50×4.6 mm ABZ+ with 5 μ packing.
Mobile phase: A=HPLC grade methanol, B=0.1% formic acid in water.
Full scan mode: mass range analysed 50 to 850 amu.
MSMS mode: filtered ions were 322 (Rimcazole), 338 (Rimcazole+oxygen), and 514 (glucuronide of 338 metabolite).

Data set [4] concerns Human adult dermal microvascular endothelial cells. Put plainly: MTS cell viability/proliferation assay, microvascular endothelial cells.
Data set [5] has as its system Human endothelial cells co-cultured with human "feeder" fibroblasts. The experiment in a line: In vitro angiogenesis assay (pseudocapillary formation, anti-CD31 staining). Type of data set: cell-based. Here is the method:
Human endothelial cells co-cultured with human “feeder” fibroblasts on a fibrin matrix in 24 well plates were incubated with ligands at different concentrations. The ligands were added on days 0, 4, 7 and 9 and the experiment terminated on day 11. On each plate, 2 wells served as untreated controls, and 2 received suramin at […] as a standard angiogenesis inhibitor. Each concentration of ligand was assayed in triplicate. On day 11, the wells were washed, and the endothelial cells fixed and stained with anti-CD31 (PECAM-1) antibody and visualised with alkaline phosphatase conjugated second antibody. The cultures were scanned for image analysis and quantitation using a DataCell image analysis system and ImagePro software. Angiogenesis was expressed as the area and/or perimeter of “pseudocapillaries” formed in the gel by the endothelial cells.

The subject of another data set is sponge angiogenesis. Put plainly: Rat sponge angiogenesis model (125I albumin vascular volume). The data set is classed as in vivo, CBH/cbi rats. Here is the method:
In order to study neoangiogenesis in the absence of tumours, sterile polyether sponges were implanted into animals. This technique, developed in Cambridge, has been widely used to study angiogenesis. We have employed a triple radiotracer technique to study different aspects of the angiogenic process.
CBH/cbi rats were implanted s.c. with sterile 13 mm diameter sponges as above. They were treated i.p. with Rimcazole (30 mg/kg/day) for 14 days from day 0. Five minutes before termination, they were injected with ^125I labelled rat albumin (a macromolecule which, in the short term remains intravascular). The amount of radioiodine in the sponges is an index of vascular volume.

The test system of data set [6] is human adult dermal fibroblasts. The experiment in a line: MTS cell viability/proliferation assay, dermal fibroblasts. Type of data set: cell-based.
Excerpt: as §2, §1

Sequence of sigma-1 sites (Q99720 whole entry): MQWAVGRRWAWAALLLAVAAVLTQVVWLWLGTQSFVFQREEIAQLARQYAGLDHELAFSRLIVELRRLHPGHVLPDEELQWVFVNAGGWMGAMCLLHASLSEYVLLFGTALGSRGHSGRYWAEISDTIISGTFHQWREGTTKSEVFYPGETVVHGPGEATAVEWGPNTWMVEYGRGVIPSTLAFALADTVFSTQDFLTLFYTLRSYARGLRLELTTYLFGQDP

In the case of `CN(C)CCN(C)CCc1ccc(Cl)c(Cl)c1` [BD1047, N(−)[2-(3,4-dichlorophenyl)ethyl]-N-methyl-2-(dimethylamino)ethylamine], at sigma-1 sites, the “affinity for sigma-1 versus sigma-2 sites” value is listed as “preferential affinities for sigma-1 compared to sigma-2” and the “selectivity for sigma sites compared to other receptors” value is reported as “marked selectivity”. Also, in the data set with endothelial cells, the IC50 was 74 µM.

As for `CN1CCN(CCc2ccc(Cl)c(Cl)c2)CC1` [BD1063, 1(−)[2-(3,4-dichlorophenyl)ethyl]-4-methylpiperazine], at sigma-1 sites, the “affinity for sigma-1 versus sigma-2 sites” value was “preferential affinities for sigma-1 compared to sigma-2” and the “selectivity for sigma sites compared to other receptors” value is “marked selectivity”. In the data set with endothelial cells (Homo sapiens, Endothelial cell), the IC50 stood at 71 µM.

Regarding `C=CCN1CCC2(C)c3cc(O)ccc3CC1C2C` (single isomer, unassigned; (+)) [(+)-SKF-10047, (+)-N-allyl normetazocine], in the data set on endothelial cells (FIG. 3), the “Rescue from Rimcazole inhibition of proliferation” value is on record as “slight increase in survival”. For the same molecule, the “Rescue from Rimcazole inhibition: numbers of endothelial cells” value with endothelial cells (10 μM agonist added together with 4 μM Rimcazole, FIG. 3) is listed as “the same as in control untreated cultures”. For the same molecule, the “Stimulatory activity on cell proliferation” value with endothelial cells was “moderate stimulatory activity”. The “Agonists: stimulation” value in the data set with endothelial cells (at 100 μM) was found to be 110% at 100 μM.

With `N=C(Nc1ccc(I)cc1)NC1C2CC3CC(C2)CC1C3` (stereo not shown) [IPAG, 1-(4-iodophenyl)-3-(2-adamantyl)guanidine], on sigma-1 sites (Whittemore et al 1997, read-out: inhibition constant for sigma-1 sites), the Ki was roughly 0.0028 µM. The “Cell killing (MTS viability)” value in data set [1] is “no surviving cells remained after 24 hours”. For the same molecule, the “Survival and proliferation (MTS)” value in data set [2] was “continued to proliferate vigorously”; in data set [6] (10 micromolar, up to 48 hours, FIG. 9) it was “continued to proliferate vigorously”. Further, in data set [3], the “Pharmacokinetics compared with Rimcazole” value is listed as “similarly favourable PK”. Besides, the IC50 in the data set with endothelial cells (Homo sapiens, Endothelial cell) is 11 µM. In addition, the “Inhibition of endothelial cell proliferation compared with Rimcazole” value with endothelial cells (not shown) is on record as “as effective as Rimcazole”. For the same molecule, in data set [4] (Homo sapiens, Endothelial cell, read-out: Reduction in viable cell numbers compared to baseline values), the cytotoxicity at 10 µM is 60 to 80%. Besides, the “Inhibition of pseudocapillary formation (in vitro angiogenesis)” value in [5] (FIG. 4, 5a, 5b angiogenesis area) was “very effective in inhibiting”. The “Vascular volume of normal organs (liver and kidney)” value in the data set with sponge angiogenesis (30 mg/kg/day for 14 days) was “unaffected”. In the data set with sponge angiogenesis (30 mg/kg/day for 14 days after implantation, FIG. 7b), the “Neoangiogenesis in sponges (vascular volume, radiolabelled albumin)” value is “reduced”. Moreover, in data set [6] (100 micromolar to 1 nanomolar, FIG. 10), the “Tolerance of fibroblasts over a range of concentrations (MTS)” value is listed as “slightly less tolerant of high concentrations”.

On to `CC(C)=CCN1CCC2(C)c3cc(O)ccc3CC1C2C` (single isomer, unassigned; (+)) [(+)pentazocine, (+)-pentazocine], for which, in the data set on endothelial cells (FIG. 3), the “Rescue from Rimcazole inhibition of proliferation” value is “slight increase in survival”. Moreover, in the data set on endothelial cells, the “Stimulatory activity on cell proliferation” value is “moderate stimulatory activity”. Besides, the “Agonists: stimulation” value with endothelial cells (at 4 μM) is listed as 120% at 4 μM. Also, the “Prevention of cytotoxic effect of IPAG and rimcazole” value in data set [4] (10 micromolar co-administered with 10 micromolar IPAG or rimcazole, FIG. 11) is reported as “completely prevented”. In addition, in data set [4] (co-administration, FIG. 11), the “Cell proliferation rate on co-administration with rimcazole and IPAG” value is recorded as “increased cell proliferation rates above control values”. The “Rescue of in vitro angiogenesis inhibition by 4 μM Rimcazole” value in data set [5] (equimolar concentration co-incubated, FIG. 5c) is “can be prevented”.
